Test results published in patent US8326545B2, “System and method for displaying a pharmacokinetic and pharmacodynamic drug model” (General Electric Company, priority 2006, dated 2012).

Key:
[1] = minimum alveolar concentration; cited from earlier work
[2] = Age MAC Awake (variation on MAC that accounts for age and adjusts to consciousness); assay type: in vivo, patient
Source text: Interactions are labeled “unknown” when (CeAA>0.3%*AgeMACawake); wherein AGEMACawake is a variation on MAC that accounts for age and adjusts to consciousness.

| Compound | MAC [1] | Age MAC Awake ([2]; age 18) | Age MAC Awake ([2]; donor one) | Age MAC Awake ([2]; donor two) |
| --- | --- | --- | --- | --- |
| FC(F)OC(F)C(F)(F)F (stereo not drawn) [Desflurane] | 6 | 2.396 | 2.055 | 1.450 |
| FC(F)OC(F)(F)C(F)Cl (stereo not drawn) [Enflurane] | 1.7 | 0.679 | 0.582 | 0.411 |
| FC(F)(F)C(Cl)Br (stereo not drawn) [Halothane] | 0.75 | 0.481 | 0.413 | 0.291 |
| FC(F)OC(Cl)C(F)(F)F (stereo not drawn) [Isoflurane] | 1.15 | 0.459 | 0.394 | 0.278 |
| [N-]=[N+]=O [Nitrous Oxide] | 100 | 64.148 | 55.021 | 38.817 |
| FCOC(C(F)(F)F)C(F)(F)F [Sevoflurane] | 2.05 | 0.819 | 0.702 | 0.495 |
